Structures are written as SMILES. Activity calls are given as the source filed them. The rule behind the calls is not given here.

For assay [1], the system named is Staphylococcus aureus. Description: Bactericidal activity against Staphylococcus aureus. Format: functional, organism-based.
Assay [2] has as its system Aspergillus niger. Description: Fungicidal activity against Aspergillus niger after 7 days by serial dilution technique. Format: functional, organism-based.
In assay [3] the test system is Escherichia coli. As to the kind of experiment: Bactericidal activity against Escherichia coli. The assay is classed as functional, organism-based.
The test system of assay [4] is Staphylococcus aureus. As to the kind of experiment: Antibacterial activity against Staphylococcus aureus after 24 hr by serial dilution technique. The assay is classed as functional.
Assay [5] deals with Candida albicans. As to the kind of experiment: Antifungal activity against Candida albicans after 2 days by serial dilution technique. Format: functional.
For assay [6], the system named is Candida albicans. As to the kind of experiment: Fungicidal activity against Candida albicans. Format: functional, organism-based.
For assay [7], the system named is Bacillus subtilis. As to the kind of experiment: Antibacterial activity against Bacillus subtilis after 24 hr by serial dilution technique. Format: functional.
Assay [8] relates to Escherichia coli. Description: Antibacterial activity against Escherichia coli after 24 hr by serial dilution technique. Format: functional.
Assay [9] has as its system Aspergillus niger. As to the kind of experiment: Antifungal activity against Aspergillus niger after 7 days by serial dilution technique. The assay is classed as functional.
Assay [10] concerns Bacillus subtilis. As to the kind of experiment: Bactericidal activity against Bacillus subtilis. The assay is classed as functional, organism-based.

In the case of `Cc1ccc(C)c(NC(=O)c2ccccc2N)c1`, the outcome in [1], in assay [2], in assay [3], in [6] and in assay [10] was Active. The “-logMIC” value in assay [4] came to 1.28; in assay [5], 1.3; in assay [7], 2.19; in [8], 1.28; in assay [9] it was 1.28.
With `CCCCNC(=O)c1ccccc1N`, the result in assay [1], in assay [2], in assay [3], in assay [6] and in [10] was Active. The “-logMIC” value in assay [4] is recorded as 1.2; in assay [5] it was 1.19; in [7], 1.49; in assay [8], 1.19; in assay [9], 1.2.
As to `NC(=O)c1ccccc1N` [ANTHRANILAMIDE], the outcome in assay [1], in [2], in [3], in assay [6] and in assay [10] was Active. The “-logMIC” value in [4] is listed as 1.04; in assay [5] it was 1.04; in assay [7], 1.94; in assay [8], 1.04; in [9], 1.64.
As for `CN(C)C(=O)c1ccccc1N`, the result in [1], in assay [2], in assay [3], in assay [6] and in assay [10] was Active. The “-logMIC” value in assay [4] is given as 0.82; in [5], 0.82; in [7], 2.02; in [8] it was 1.42; in assay [9], 1.42.
As to `Nc1ccccc1C(=O)N1CCOCC1` [(2-AMINOPHENYL)(MORPHOLINO)METHANONE], the result in assay [1], in assay [2], in assay [3], in assay [6] and in assay [10] was Active. Further, the “-logMIC” value in assay [4] was 1.22; in assay [5] it was 1.22; in [7], 1.22; in [8], 1.52; in [9] it was 1.22.
As for `CCn1cc(C(=O)O)c(=O)c2cc(F)c(N3CCNCC3)cc21` [NORFLOXACIN], the “-logMIC” value in assay [4], in [7] and in [8] was 3.33 in each case.
In the case of `CC(C)COC(=O)c1ccccc1N` [ISOBUTYL 2-AMINOBENZOATE], the result in assay [1], in [2], in assay [3], in assay [6] and in [10] was Active. The “-logMIC” value is given as 0.89 in [4]; 0.59 in assay [5]; 1.79 in assay [7]; 1.51 in assay [8]; 1.06 in [9].
Consider `CCCCCCCOC(=O)c1ccccc1N` [HEPTYL 2-AMINOBENZOATE], for which the result in assay [1], in assay [2], in [3], in assay [6] and in assay [10] was Active. Also, the “-logMIC” value is given as 1.27 in [4]; 1.58 in assay [5]; 1.88 in assay [7]; 1.88 in [8]; 1.58 in [9].
With `OC(Cn1cncn1)(Cn1cncn1)c1ccc(F)cc1F` [FLUCONAZOLE], the “-logMIC” value in [5] and in [9] was 2.64 throughout.
